Active and inactive are the calls of the source. The rule behind the calls is not given here.
How the values were obtained:
[1] = Cytotoxicity against human SNB19 cells assessed as growth inhibition at 10 uM after 48 hrs by SRB assay; type: functional; details: SNB-19, 48 h, read-out: GI
[2] = Cytotoxicity against human UACC62 cells assessed as growth inhibition at 10 uM after 48 hrs by SRB assay; type: functional; details: UACC-62, 48 h, read-out: GI
NCI-H322M = test: Cytotoxicity against human NCI-H322M cells assessed as growth inhibition at 10 uM after 48 hrs by SRB assay; type: functional
ACHN = test: Cytotoxicity against human ACHN cells assessed as growth inhibition at 10 uM after 48 hrs by SRB assay; type: functional; details: read-out: GI
[3] = Cytotoxicity against human SNB75 cells assessed as growth level at 10 uM after 48 hrs by SRB assay; type: functional, SNB-75
[4] = Cytotoxicity against human SNB19 cells assessed as growth level at 10 uM after 48 hrs by SRB assay; type: functional, SNB-19
[5] = Cytotoxicity against human NCI-ADR-RES cells assessed as growth inhibition at 10 uM after 48 hrs by SRB assay; type: functional; details: read-out: GI
NCI-H226 = test: Cytotoxicity against human NCI-H226 cells assessed as growth inhibition at 10 uM after 48 hrs by SRB assay; type: functional; details: NCI-H226, 48 h, read-out: GI
[6] = Cytotoxicity against human HOP62 cells assessed as growth inhibition at 10 uM after 48 hrs by SRB assay; type: functional; details: HOP-62, 48 h, read-out: GI
HT-29 [7] = test: Cytotoxicity against human HT-29 cells assessed as growth inhibition at 10 uM after 48 hrs by SRB assay; type: functional; details: HT-29, 48 h, read-out: GI
[8] = Cytotoxicity against human Caki1 cells assessed as growth inhibition at 10 uM after 48 hrs by SRB assay; type: functional; details: CAKI-1, 48 h, read-out: GI
KM12 = test: Cytotoxicity against human KM12 cells assessed as growth inhibition at 10 uM after 48 hrs by SRB assay; type: functional; details: KM12, 48 h, read-out: GI
A549 = test: Cytotoxicity against human A549 cells assessed as growth level at 10 uM after 48 hrs by SRB assay; type: functional
EKVX [9] = test: Cytotoxicity against human EKVX cells assessed as growth inhibition at 10 uM after 48 hrs by SRB assay; type: functional
[10] = Cytotoxicity against human RXF393 cells assessed as growth level at 10 uM after 48 hrs by SRB assay; type: functional, RXF 393
[11] = Cytotoxicity against human SF539 cells assessed as growth inhibition at 10 uM after 48 hrs by SRB assay; type: functional; details: SF-539, 48 h, read-out: GI
EKVX [12] = test: Cytotoxicity against human EKVX cells assessed as growth level at 10 uM after 48 hrs by SRB assay; type: functional
A498 = test: Cytotoxicity against human A498 cells assessed as growth inhibition at 10 uM after 48 hrs by SRB assay; type: functional; details: A498, 48 h, read-out: GI
[13] = Cytotoxicity against human PC3 cells assessed as growth inhibition at 10 uM after 48 hrs by SRB assay; type: functional; details: PC-3, 48 h, read-out: GI
[14] = Cytotoxicity against human HCT116 cells assessed as growth inhibition at 10 uM after 48 hrs by SRB assay; type: functional; details: HCT-116, 48 h, read-out: GI
U-251 = test: Cytotoxicity against human U251 cells assessed as growth level at 10 uM after 48 hrs by SRB assay; type: functional
[15] = Cytotoxicity against human RXF393 cells assessed as growth inhibition at 10 uM after 48 hrs by SRB assay; type: functional; details: RXF 393, 48 h, read-out: GI
[16] = Cytotoxicity against human HCC2998 cells assessed as growth level at 10 uM after 48 hrs by SRB assay; type: functional, HCC 2998
[17] = Cytotoxicity against human LOXIMVI cells assessed as growth level at 10 uM after 48 hrs by SRB assay; type: functional, LOX IMVI
Malme-3M = test: Cytotoxicity against human MALME-3M cells assessed as growth level at 10 uM after 48 hrs by SRB assay; type: functional
MCF7 = test: Cytotoxicity against human MCF7 cells assessed as growth level at 10 uM after 48 hrs by SRB assay; type: functional
[18] = Cytotoxicity against human BT549 cells assessed as growth inhibition at 10 uM after 48 hrs by SRB assay; type: functional; details: BT-549, 48 h, read-out: GI
[19] = Cytotoxicity against human HOP92 cells assessed as growth inhibition at 10 uM after 48 hrs by SRB assay; type: functional; details: HOP-92, 48 h, read-out: GI
[20] = Cytotoxicity against human HCT116 cells assessed as growth level at 10 uM after 48 hrs by SRB assay; type: functional, HCT-116
[21] = Cytotoxicity against human LOXIMVI cells assessed as growth inhibition at 10 uM after 48 hrs by SRB assay; type: functional; details: LOX IMVI, read-out: GI
T47D = test: Cytotoxicity against human T47D cells assessed as growth level at 10 uM after 48 hrs by SRB assay; type: functional
[22] = Cytotoxicity against human SF268 cells assessed as growth inhibition at 10 uM after 48 hrs by SRB assay; type: functional; details: SF-268, 48 h, read-out: GI
HT-29 [23] = test: Cytotoxicity against human HT-29 cells assessed as growth level at 10 uM after 48 hrs by SRB assay; type: functional
786-0 = test: Cytotoxicity against human 786-0 cells assessed as growth inhibition at 10 uM after 48 hrs by SRB assay; type: functional; details: 786-0, 48 h, read-out: GI
MDA-MB-231 = test: Cytotoxicity against human MDA-MB-231 cells assessed as growth inhibition at 10 uM after 48 hrs by SRB assay; type: functional; details: MDA-MB-231, 48 h, read-out: GI
CCRF-CEM = test: Cytotoxicity against human CCRF-CEM cells assessed as growth inhibition at 10 uM after 48 hrs by SRB assay; type: functional; details: read-out: GI
SK-MEL-28 = test: Cytotoxicity against human SK-MEL-28 cells assessed as growth level at 10 uM after 48 hrs by SRB assay; type: functional
[24] = Cytotoxicity against human SF295 cells assessed as growth level at 10 uM after 48 hrs by SRB assay; type: functional, SF-295
[25] = Cytotoxicity against human SKOV3 cells assessed as growth level at 10 uM after 48 hrs by SRB assay; type: functional, SK-OV-3
[26] = Cytotoxicity against human RPMI8226 cells assessed as growth level at 10 uM after 48 hrs by SRB assay; type: functional, RPMI-8226
[27] = Cytotoxicity against human NCI-ADR-RES cells assessed as growth level at 10 uM after 48 hrs by SRB assay; type: functional
[28] = Cytotoxicity against human HCT15 cells assessed as growth inhibition at 10 uM after 48 hrs by SRB assay; type: functional; details: HCT-15, 48 h, read-out: GI
[29] = Cytotoxicity against human UO31 cells assessed as growth inhibition at 10 uM after 48 hrs by SRB assay; type: functional; details: UO-31, 48 h, read-out: GI
[30] = Cytotoxicity against human SKOV3 cells assessed as growth inhibition at 10 uM after 48 hrs by SRB assay; type: functional; details: SK-OV-3, 48 h, read-out: GI

With C=C1CC[C@@H]2[C@](C)(COC(C)=O)[C@H](OC(C)=O)CC[C@@]2(C)[C@@H]1C/C=C1/C(=O)OC[C@H]1OC(C)=O the inhibition of growth at 10 µM [1] was 17%, the inhibition of growth at 10 µM [2] was 70.3% and the “growth inhibition (GI)” value (NCI-H322M) was “inactive”. The inhibition of growth at 10 µM (ACHN) was 80.5%, the Activity [3] was 44.87% and the Activity [4] was 82.96%. The inhibition of growth at 10 µM [5] was 75%, the inhibition of growth at 10 µM (NCI-H226) was 76.4% and the inhibition of growth at 10 µM [6] was 24.2%. It also gave an inhibition of growth at 10 µM (HT-29 [7]) of 39.4%, an inhibition of growth at 10 µM [8] of 18.5% and an inhibition of growth at 10 µM (KM12) of 47.2%. The Activity (A549) was 85.77%, the “growth inhibition (GI)” value (EKVX [9]) was “inactive” and the Activity [10] was -7.35%. The inhibition of growth at 10 µM [11] was 91.5%, the Activity (EKVX [12]) was 102.98% and the inhibition of growth at 10 µM (A498) was 9.43%. The inhibition of growth at 10 µM [13] was 11.5%, the inhibition of growth at 10 µM [14] was 37.3% and the Activity (U-251) was 54.02%. The inhibition of growth at 10 µM [15] was 7.35%, the Activity [16] was 67.32% and the Activity [17] was -74.4%. It also gave an Activity (Malme-3M) of 77.72%, an Activity (MCF7) of 22.9% and an inhibition of growth at 10 µM [18] of 72.6%. For the same molecule, the inhibition of growth at 10 µM [19] was 28.1%, the Activity [20] was -37.34% and the inhibition of growth at 10 µM [21] was 74.4%. It also gave an Activity (T47D) of 42.77%, an inhibition of growth at 10 µM [22] of 12.9% and an Activity (HT-29 [23]) of -39.4%. For the same molecule, the inhibition of growth at 10 µM (786-0) was 10.9%, the inhibition of growth at 10 µM (MDA-MB-231) was 4.16% and the inhibition of growth at 10 µM (CCRF-CEM) was 11.4%. It also gave an Activity (SK-MEL-28) of 37.78%, an Activity [24] of 95.02% and an Activity [25] of 101.37%. The Activity [26] was 14.12%, the Activity [27] was 24.99% and the inhibition of growth at 10 µM [28] was 23%. It also gave an inhibition of growth at 10 µM [29] of 37.2%.

With C=C1CC[C@@H]2[C@](C)(COC(C)=O)[C@H](OC(C)=O)CC[C@@]2(C)[C@@H]1CC(NCCCC)C1=CCOC1=O (mixture of isomers) the inhibition of growth at 10 µM [1] was 12.7%, the inhibition of growth at 10 µM [2] was 27.6% and the inhibition of growth at 10 µM (NCI-H322M; read-out: GI) was 3.78%. For the same molecule, the inhibition of growth at 10 µM (ACHN) was 0.58%, the Activity [3] was 77.87% and the Activity [4] was 87.32%. It also gave an inhibition of growth at 10 µM [5] of 12.7%, an inhibition of growth at 10 µM [30] of 7.58% and an inhibition of growth at 10 µM (NCI-H226) of 24.3%. The inhibition of growth at 10 µM [6] was 6.04%, the inhibition of growth at 10 µM (HT-29 [7]) was 17.4% and the inhibition of growth at 10 µM [8] was 9.05%. For the same molecule, the inhibition of growth at 10 µM (KM12) was 7.21%, the Activity (A549) was 81.23% and the inhibition of growth at 10 µM (EKVX [9]; read-out: GI) was 28.6%. It also gave an Activity [10] of 104.19%, an inhibition of growth at 10 µM [11] of 9.46% and an Activity (EKVX [12]) of 71.43%. For the same molecule, the inhibition of growth at 10 µM (A498) was 24.6%, the inhibition of growth at 10 µM [13] was 48.8% and the inhibition of growth at 10 µM [14] was 19.8%. For the same molecule, the Activity (U-251) was 86.76%, the Activity [16] was 92.1% and the Activity [17] was 90.39%. For the same molecule, the Activity (Malme-3M) was 97.57%, the Activity (MCF7) was 82.86% and the inhibition of growth at 10 µM [18] was 10.8%. It also gave an inhibition of growth at 10 µM [19] of 46.7%, an Activity [20] of 80.22% and an inhibition of growth at 10 µM [21] of 9.61%. For the same molecule, the Activity (T47D) was 71.96%, the inhibition of growth at 10 µM [22] was 23% and the Activity (HT-29 [23]) was 82.56%. For the same molecule, the inhibition of growth at 10 µM (786-0) was 3.93%, the inhibition of growth at 10 µM (MDA-MB-231) was 20.9% and the inhibition of growth at 10 µM (CCRF-CEM) was 19.3%. The Activity (SK-MEL-28) was 98.09%, the Activity [24] was 94.28% and the Activity [25] was 92.42%. The Activity [26] was 60.49%, the Activity [27] was 87.27% and the inhibition of growth at 10 µM [28] was 3.11%. It also gave an inhibition of growth at 10 µM [29] of 16%.

Reference: ChEMBL document CHEMBL3734705, “Synthesis and in vitro cytotoxicity of novel C-12 substituted-14-deoxy-andrographolide derivatives as potent anti-cancer agents” (2015)
